Results on nine molecules are retold here after ChEMBL document CHEMBL3430912, “GSK Tres Cantos Anti-Kinetoplastid Screening (TCAKS) Data”.

A value given as a limit tells only on which side of the number the result lay.

Data set [1] concerns Leishmania donovani. Put plainly: GSK_TCAKS: pIC50 Leishmania donovani viability assay using fluorescence intensity. Assay plates (1536-well) were prepared by adding 30nL per well of compound. For single shot assay, the final compound concentration was 5uM. […] Briefly, eGFP LdBOB axenic amastigotes were harvested, fixed and counted in a CASY cell counter (Roche-Applied Science). A final concentration of 1.5 * 10^5 cells per well were prepared in amastigote media containing 500 U/mL penicillin/streptomycin (Invitrogen) and 6uL was dispensed to each experimental well using a Multidrop Combi dispenser (Thermo Scientific). 6uL of assay media was dispensed to control columns used as reference for 100% compound response. Following incubation for 72 h at 37C, 5% CO2, 2 uL of resazurin was added to each well at a final concentration of 0.5 mM in phosphate buffered saline (PBS) with IGEPAL (Sigma-Aldrich), 0.05% (v/v). In kind it is functional, organism-based. A general note: The colour change of resazurin is a common sign of viable cells or microbes.

In data set [2] the test system is Leishmania donovani. The data set can be described thus: GSK_TCAKS: pIC50 Leishmania donovani Imaging: Infected Macrophages. Assay plates (384-well) were prepared by adding 250nL of compound to each well. For single shot assay, the final compound concentration was 5 uM. […] Automated image analysis was performed with a script developed on Acapella High Content Imaging and Analysis Software (PerkinElmer). Output: Percent of infected macrophage cells were reported for each well. It is filed as functional, organism-based, Homo sapiens. As to conditions: THP-1.

Data set [3] concerns Leishmania donovani. The data set can be described thus: GSK_TCAKS: pIC50 Leishmania donovani Imaging: Amastigotes/Macrophages. Assay plates (384-well) were prepared by adding 250nL of compound to each well. For single shot assay, the final compound concentration was 5 uM. […] Automated image analysis was performed with a script developed on Acapella High Content Imaging and Analysis Software (PerkinElmer). Output: Average number of amastigotes per macrophage cell were reported for each well. As to conditions: THP-1. In kind it is functional, organism-based, Homo sapiens.

Data set [4] has as its system Leishmania donovani. The data set can be described thus: GSK_TCAKS: pIC50 Leishmania donovani Imaging: THP-1 Host Macrophages. Assay plates (384-well) were prepared by adding 250nL of compound to each well. For single shot assay, the final compound concentration was 5 uM. […] Automated image analysis was performed with a script developed on Acapella High Content Imaging and Analysis Software (PerkinElmer). Output: THP-1 cell count were reported for each well. It is filed as functional, organism-based, Homo sapiens.

A short description of data set [5]: GSK_TCAKS: pIC50 HepG2 human cell line viability assay using luminiscence. […] Seeding density was checked to ensure that new mono-layers were not more than 50% confluent at the time of harvesting. Cell suspension was added to 500 mL of the same medium at a final density of 1.2 * 10^5 cells/mL. This cell suspension was dispensed (25 uL, 3000 cells per well) into 384-well clear-bottom plates using a Multidrop Combi dispenser. Prior to addition of the cell suspension, the screening compounds (250 nL) were pre-dispensed into the plates with an Echo liquid handler. Plates were incubated for 48 h at 37C, 5% CO2. After incubation, plates equilibrated at room temperature for 30 min before proceeding to develop the luminescent signal. The signal developer, CellTiter-Glo Reagent, was allowed to equilibrate at room temperature for 30 min and added to the plates (25uL per well) using a Multidrop Combi dispenser. Plates were left for 10 min at room temperature for stabilization and then read using a ViewLux. In kind it is toxicity, cell-based. On the technique in general: In ATP-based viability assays light output follows the ATP content of the culture.

Data set [6] concerns the target Sterol 14-alpha demethylase (Trypanosoma cruzi (strain CL Brener), UniProt Q7Z1V1). Put plainly: GSK_TCAKS: pIC50 CYP51 from Trypanosoma cruzi. It is filed as functional.
The subject of data set [7] is Trypanosoma cruzi. The data set can be described thus: GSK_TCAKS: pIC50 Trypanosoma cruzi viability assay using beta-GAL activity. This assay was run at single shot at 5uM compound concentration per well. The biological reagents consisted of NIH-3T3 host cells and trypomastigotes parasitic cells; both cell types were set to a 3.3 * 10^5 cells/mL dilution in assay DMEM by means of a CASY cell counter device using a 60um capillary. 6 uL of the mixture were dispensed per well (about 1 * 10^3 host-cells and 1 * 10^3 parasites) with a Multidrop Combi dispenser. […] In all wells, the percentage of DMSO never exceeded 0.5%. Plates incubated for four days at 37C, 5% CO2. The substrate used for the assay fluorescence intensity (FLINT) readout was resorufin-beta-D-galactopiranoside (Sigma-Aldrich) at 5uM per well. It was diluted in PBS supplemented with the soft detergent Igepal (Fluka). It is filed as functional, organism-based, Mus musculus. As to conditions: Tulahuen, NIH3T3.

The subject of data set [8] is Trypanosoma cruzi. Put plainly: (§1) GSK_TCAKS: pIC50 Trypanosoma cruzi Imaging: Infected Cells. […] Cells were then washed once with PBS before infection. T. cruzi trypomastigotes, collected at days 5 to 8 after infection from LLC-MK2 parasite infected cultures, were allowed to swim out for 4h at 37C from a centrifuged pellet (2,500 rpm/10 min/room temperature). Trypomastigotes were then collected and counted in a CASY Cell Counter. Trypomastigotes, in supplemented DMEM, were added to H9c2 cultures in a multiplicity of infection of 1 and incubated for 18 h. Cells were washed once with PBS before incubation of the infected H9c2 monolayer with trypsin (Life-Technologies) to detach cells from the flask. Cells were counted in a CASY Cell Counter using a 150 um capillary and their density set at 5 * 10^4 cells per mL in supplemented assay DMEM. Infected H9c2 were dispensed into 384-well poly-lysine coated assay plates at 50uL per well using a Multidrop Combi dispenser. After seeding them, the plates were incubated at 37C, 5% CO2 for 72h. Cultures were then fixed and stained by addition of 50 uL of a solution containing 8% formaldehyde and 4 uM DRAQ5 DNA dye (BioStatus, UK) per well. […] Five images were collected per well for reliable statistical analysis. Automated image analysis was performed with a script developed on Acapella High Content Imaging and Analysis Software (PerkinElmer). Output: percentage of infected cells per well as a second infection marker. In kind it is functional, organism-based, Rattus norvegicus. As to conditions: H9c2, 4 h.

The test system of data set [9] is Trypanosoma cruzi. Put plainly: GSK_TCAKS: pIC50 Trypanosoma cruzi Imaging: Amastigotes/Cell. […] Cells were then washed once with PBS before infection. T. cruzi trypomastigotes, collected at days 5 to 8 after infection from LLC-MK2 parasite infected cultures, were allowed to swim out for 4h at 37C from a centrifuged pellet (2,500 rpm/10 min/room temperature). Trypomastigotes were then collected and counted in a CASY Cell Counter. Trypomastigotes, in supplemented DMEM, were added to H9c2 cultures in a multiplicity of infection of 1 and incubated for 18 h. Cells were washed once with PBS before incubation of the infected H9c2 monolayer with trypsin (Life-Technologies) to detach cells from the flask. Cells were counted in a CASY Cell Counter using a 150 um capillary and their density set at 5 * 10^4 cells per mL in supplemented assay DMEM. Infected H9c2 were dispensed into 384-well poly-lysine coated assay plates at 50uL per well using a Multidrop Combi dispenser. After seeding them, the plates were incubated at 37C, 5% CO2 for 72h. Cultures were then fixed and stained by addition of 50 uL of a solution containing 8% formaldehyde and 4 uM DRAQ5 DNA dye (BioStatus, UK) per well. […] Five images were collected per well for reliable statistical analysis. Automated image analysis was performed with a script developed on Acapella High Content Imaging and Analysis Software (PerkinElmer). Output: number of amastigotes per cell as infection level measurement. It is filed as functional, organism-based, Rattus norvegicus. As to conditions: H9c2, 4 h.

Data set [10] relates to Trypanosoma cruzi. Described as §1, with “H2C9” for “Trypanosoma cruzi”, “H9c2 Host Cardiomyocytes.” for “Infected Cells.”, “Number” for “percentage”, “H9c2 Host Cardiomyocytes nuclei to determine drug-related cytotoxicity.” for “infected cells per well as a second infection marker.”. In kind it is functional, organism-based, Rattus norvegicus. As to conditions: H9c2, 4 h.

The test system of data set [11] is Trypanosoma brucei brucei. The data set can be described thus: GSK_TCAKS: pIC50 Trypanosoma brucei viability assay using fluorescence intensity. Assay plates (1536-well) were prepared by dispensing 25nL of compound solution per well using an Echo acoustic dispenser (Labcyte). The settings on record: Lister 427, 2 h. It is filed as functional, organism-based.
Data set [12] concerns Trypanosoma brucei brucei. The data set can be described thus: GSK_TCAKS: pIC50 Trypanosoma brucei viability assay using luminiscence. Assay plates (1536-well) were prepared. T. brucei cultures were harvested and counted in a CASY cell counter. A parasite suspension was prepared at a final concentration of 5 * 10^4 cells/mL in complete HMI9 medium and 6uL was dispensed to all wells containing compounds using a Multidrop Combi dispenser. 6uL of HMI9 media with 0.4% DMSO were dispensed to control columns. Plates were incubated for 24 h at 37C, 5% CO2 then tempered for 10 min at room temperature. ATP content was quantified by adding 4 uL of CellTiter-Glo Reagent (Promega) according to the manufacturer's instructions. Luminescence was measured using a ViewLux. It is filed as functional, organism-based. The settings on record: Lister 427, CASY.

Sequence of Sterol 14-alpha demethylase (Q7Z1V1 whole entry): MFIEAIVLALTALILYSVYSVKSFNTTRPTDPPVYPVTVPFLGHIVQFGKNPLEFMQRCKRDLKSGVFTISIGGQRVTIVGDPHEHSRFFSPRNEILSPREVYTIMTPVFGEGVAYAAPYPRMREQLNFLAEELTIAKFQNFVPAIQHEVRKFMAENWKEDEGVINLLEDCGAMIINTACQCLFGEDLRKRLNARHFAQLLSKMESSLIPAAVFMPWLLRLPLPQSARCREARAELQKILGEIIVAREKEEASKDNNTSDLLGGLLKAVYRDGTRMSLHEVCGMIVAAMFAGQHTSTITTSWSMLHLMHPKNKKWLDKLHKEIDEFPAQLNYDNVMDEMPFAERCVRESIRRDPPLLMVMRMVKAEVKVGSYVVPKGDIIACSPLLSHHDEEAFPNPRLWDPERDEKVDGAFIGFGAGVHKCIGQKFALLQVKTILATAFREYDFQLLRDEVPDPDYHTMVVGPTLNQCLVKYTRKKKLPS

As for `Cc1nn(-c2nc3ccccc3[nH]2)c2c1C(c1ccc(O)cc1)CC(=O)N2` (stereo not drawn), the IC50 (as a rule, the midpoint of a concentration-inhibition curve) was 0.794 µM with Leishmania donovani [1]; 1 µM in the data set with Leishmania donovani [2]; 0.501 µM with Leishmania donovani [3]; 6.31 µM in the data set on Leishmania donovani [4]; 25.1 µM in [6]. In addition, in [5], the midpoint of inhibition, the IC50 at 48 h, lay at 25.1 µM.

For `C=CC[C@@H]1CC=C[C@@H](C)N1C(=O)CCc1nnc(-c2ccc3c(c2)OCO3)o1`, the IC50 in the data set on Leishmania donovani [1] is 6.31 µM; in the data set with Leishmania donovani [2] it was 7.94 µM; in the data set on Leishmania donovani [3], 3.16 µM; with Leishmania donovani [4], 12.6 µM; in data set [6] it was 39.8 µM. Also, the IC50 at 48 h in data set [5] is over 100 µM.

With `O=C1c2cnc(N3CCCC3)nc2CN1c1ccc2c(c1)OCO2`, the IC50 is 2.51 µM in the data set on Trypanosoma cruzi [7]; 6.31 µM with Leishmania donovani [1]; 10 µM in the data set with Leishmania donovani [2]; 6.31 µM in the data set with Leishmania donovani [3]; over 50.1 µM in the data set on Leishmania donovani [4]; over 100 µM in [6]. Moreover, in data set [5], the IC50 at 48 h was over 100 µM.

For the molecule `COc1ccccc1C(=O)Nc1nnc(-c2ccc3c(c2)OCO3)s1`, the IC50 was 2.51 µM in the data set with Trypanosoma cruzi [7]; 1 µM in the data set with Leishmania donovani [1]; 1 µM in the data set with Leishmania donovani [2]; 0.631 µM in the data set on Leishmania donovani [3]; 15.8 µM with Leishmania donovani [4]; over 100 µM in [6]. In [5], this molecule had an IC50 at 48 h of over 100 µM.

As for `N=C(N)Nc1nc(-c2ccc(NC(=N)NCCN3CCCC3)cc2)cs1`, the IC50 with Trypanosoma cruzi [7], with Trypanosoma cruzi [8], in the data set with Trypanosoma cruzi [9], in the data set with Trypanosoma cruzi [10], in the data set with Leishmania donovani [1] and with Leishmania donovani [2] was over 50.1 µM throughout. The IC50 in the data set with Leishmania donovani [3] is over 50.1 µM; with Leishmania donovani [4], over 50.1 µM; in data set [11], 0.0398 µM; in data set [12], 0.1 µM. In [5], this molecule showed an IC50 at 48 h of over 100 µM.

For the molecule `Oc1c(-c2nnc(Cc3ccc(F)cc3)[nH]2)ncc2cccnc12`, the IC50 with Trypanosoma cruzi [7] was 0.158 µM; with Leishmania donovani [1] it was 0.126 µM; with Leishmania donovani [2] it was 1 µM; with Leishmania donovani [3] it was 1 µM; in the data set on Leishmania donovani [4], 20 µM; in data set [6] it was over 100 µM. In data set [5], this molecule had an IC50 at 48 h of 25.1 µM.

Take `Oc1c(-c2nnc(Cc3ccc(Cl)cc3)[nH]2)ncc2cccnc12`: the concentration for half-maximal inhibition (IC50) with Leishmania donovani [1] is 0.251 µM; in the data set on Leishmania donovani [2], 1.26 µM; with Leishmania donovani [3], 1 µM; in the data set on Leishmania donovani [4], 20 µM; in data set [6], 31.6 µM. In [5], this molecule gave an IC50 at 48 h of 39.8 µM.

For the molecule `COc1ccc(Cc2nnc(-c3ncc4cccnc4c3O)[nH]2)cc1OC`, the concentration for half-maximal inhibition (IC50) in the data set with Trypanosoma cruzi [7] is 1.26 µM; in the data set with Leishmania donovani [1] it was 0.316 µM; with Leishmania donovani [2], 3.16 µM; in the data set with Leishmania donovani [3] it was 2.51 µM; with Leishmania donovani [4], 20 µM; in data set [6], over 100 µM. The same molecule had an IC50 at 48 h in [5] of 50.1 µM.

With `c1ccc(-c2nc(NC3CCCCC3)cc(C3CC3)n2)nc1`, the IC50 with Leishmania donovani [1] was 0.794 µM; in the data set on Leishmania donovani [2], 3.98 µM; in the data set with Leishmania donovani [3], 3.16 µM; in the data set on Leishmania donovani [4], 20 µM; in [6], over 100 µM. Also, the IC50 at 48 h in [5] was 39.8 µM.
